According to PubChem BioAssay AID1963869 (Molecular Pharmacology Branch, DTP, NCI, 2024):
Values joined by “and” are separate entries in the source; they are usually repeats but may differ in a detail not shown here. Identical values can stand only once.

System: KRAS patient-derived spheroids with HUVEC/MSC, viability
Assay: Anticancer human tumor 323965-272-R-J2-PDC patient-derived pancreatic carcinoma cell line growth inhibition [KRAS2]
Conditions: for viability, T/C: stronger effect = lower value; active means viability on the fitted dose curve at most 10% of control; inactive means the rest
Source text: Multicellular complex tumor spheroid response to RAS pathway inhibitors in combination with a targeted agents in patient-derived cell lines with oncogenic KRAS variants from multiple cancer types
A high-throughput screen of multi-cell type tumor spheroids was designed to identify active combinations of targeted small molecules and KRAS pathway inhibitors. Complex spheroids include a stromal component modeled by human endothelial cells (HUVEC) and fibroblasts modeled by human mesenchymal stem cells (MSCs). The concentration ranges selected for each drug and investigational agent were based upon clinically achievable concentrations if the clinical Cmax of the agent was known.
Compounds. The drugs and investigational agents: BI-3406 (NSC825286), BAY-293 (NSC824723), batoprotafib (TNO155; NSC825523), sotorasib (AMG 510; NSC818433), MRTX1257 (NSC819558), elimusertib (BAY 1895344; NSC800525), molibresib (GSK525762; NSC774829), temuterkib (LY3214996; NSC803410), venetoclax (NSC766270), alisertib (NSC759677), olaparib (NSC753686), talazoparib (NSC767125), erdafitinib (NSC781556), ipatasertib (NSC767898), cabozantinib (NSC761068), nintedanib (NSC756659), abemaciclib (NSC768073), docetaxel (NSC628503), trametinib (NSC758246), and sapanisertib (NSC764658) were obtained from the National Cancer Institute (NCI) Developmental Therapeutics Program Chemical Repository. The FDA-approved anticancer drug set is available from the Developmental Therapeutics Program. […] The stock solutions were prepared in dimethyl sulfoxide (DMSO, Sigma-Aldrich, St. Louis, MO, cat. D2650) at 800-fold the tested concentration and stored at -70 degrees C prior to their use. All drugs and investigational agents were tested over a range starting from a high concentration at or near the clinical Cmax and decreasing in half-log increments. If the clinical Cmax for an agent had not been determined, the highest concentration tested was 10 microM.
Cell Culture. All cells were maintained in an incubator at 37 degrees C and 5% CO2 with 95% humidity. The PDC lines were cultured according to standard operating procedures established by the NCI PDMR (https://pdmr.cancer.gov/sops/default.htm). Briefly, all PDCs were thawed and cultured in Matrigel-coated flasks prepared with a working solution of 1X Ham's F-12 nutrient mix, without supplementation (Invitrogen, Waltham, MA, cat. 11765054), 100 U/mL penicillin-streptomycin (Invitrogen, cat. 15140122), and 2.5% Matrigel (Corning Inc., Corning, NY, cat. 354248) for the first three passages. All PDCs were cultured in complete DMEM/F-12 media containing advanced DMEM/F-12 (Invitrogen, cat. 12634028), 4.9% defined fetal bovine serum, heat inactivated (HyClone Laboratories Inc., Logan, UT, cat. SH30070.03HI), 389 ng/mL hydrocortisone (Sigma-Aldrich, cat. H4001), 9.7 ng/mL human EGF recombinant protein (Invitrogen, cat. PHG0313), 23.4 microg/mL adenine (Sigma-Aldrich, cat. A2786), 97.3 U/mL penicillin-streptomycin (Invitrogen, cat. 15140122), 1.9 mM L-glutamine (Invitrogen, cat. 25030081), and 9.7 microM Y-27632 dihydrochloride (Tocris Bioscience, Bristol, United Kingdom, cat. 1254). The PDCs were cultured in complete DMEM/F12 media without 9.7 microM Y-27632 dihydrochloride for at least two passages prior to the screen. The established cell line HOP-62 was cultured in RPMI 1640 medium, HEPES (Invitrogen, cat. 22400105) with 10% defined fetal bovine serum (HyClone Laboratories Inc., cat. SH30070.03) and 2 mM L-glutamine (Invitrogen, cat. 25030081). The pooled donor HUVEC were cultured in endothelial cell growth medium 2 (PromoCell, Heidelberg, Germany, cat. C-22011) and the hMSC were cultured in mesenchymal stem cell growth medium 2 (PromoCell, cat. C-28009). For all experiments, HUVEC and hMSC were used at passages </=5, while the malignant cell lines were used at passages </=15. […]

[1] = curve of first compound, second compound 0.1 µM
[2] = curve of first compound, second compound 0.316 µM
[3] = curve of first compound, second compound 1 µM
[4] = curve of first compound, second compound 3.16 µM
[5] = second compound 0.1 µM, first compound 0.01 µM
[6] = second compound 0.1 µM, first compound 0.0316 µM
[7] = second compound 0.1 µM, first compound 0.1 µM
[8] = second compound 0.1 µM, first compound 0.316 µM
[9] = second compound 0.1 µM, first compound 1 µM
[10] = second compound 0.1 µM, first compound 3.16 µM
[11] = second compound 0.316 µM, first compound 0.01 µM
[12] = second compound 0.316 µM, first compound 0.0316 µM
[13] = second compound 0.316 µM, first compound 0.1 µM
[14] = second compound 0.316 µM, first compound 0.316 µM
[15] = second compound 0.316 µM, first compound 1 µM
[16] = second compound 0.316 µM, first compound 3.16 µM
[17] = second compound 1 µM, first compound 0.01 µM
[18] = second compound 1 µM, first compound 0.0316 µM
[19] = second compound 1 µM, first compound 0.1 µM
[20] = second compound 1 µM, first compound 0.316 µM
[21] = second compound 1 µM, first compound 1 µM
[22] = second compound 1 µM, first compound 3.16 µM
[23] = second compound 3.16 µM, first compound 0.01 µM
[24] = second compound 3.16 µM, first compound 0.0316 µM
[25] = second compound 3.16 µM, first compound 0.1 µM
[26] = second compound 3.16 µM, first compound 0.316 µM
[27] = second compound 3.16 µM, first compound 1 µM
[28] = second compound 3.16 µM, first compound 3.16 µM
[29] = curve of first compound, second compound 10 µM
[30] = second compound 10 µM, first compound 0.0316 µM
[31] = second compound 10 µM, first compound 0.1 µM
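Further: spheroids exposed to agents for 7 days.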

CC(=O)OC12COC1CC(O)C1(C)C(=O)C(O)C3=C(C)C(OC(=O)C(O)C(NC(=O)OC(C)(C)C)c4ccccc4)CC(O)(C(OC(=O)c4ccccc4)C21)C3(C)C (configuration not stated) + C=CC(=O)N1CCN(c2nc(OCC3CCCN3C)nc3c2CCN(c2cccc4cccc(C)c24)C3)CC1CC#N
inactive: viability, T/C (second compound 0.0316 µM, first compound 0.01 µM) 25.4% | viability, T/C (second compound 0.0316 µM, first compound 0.0316 µM) 23.9% | viability, T/C (second compound 0.0316 µM, first compound 0.1 µM) 22.6% | viability, T/C (second compound 0.0316 µM, first compound 0.316 µM) 23.2% | viability, T/C (second compound 0.0316 µM, first compound 1 µM) 22.9% | viability, T/C (second compound 0.0316 µM, first compound 3.16 µM) 23.6% | viability, T/C [5] 21.5% | viability, T/C [6] 22.9% | viability, T/C [7] 18.7% | viability, T/C [8] 20.7% | viability, T/C [9] 20.7% | viability, T/C [10] 21.2% | viability, T/C [11] 20.1% | viability, T/C [12] 21.1% | viability, T/C [13] 19.7% | viability, T/C [14] 17.9% | viability, T/C [15] 30.9% | viability, T/C [16] 21.3% | viability, T/C [17] 19.4% | viability, T/C [18] 17.4% | viability, T/C [19] 18.2% | viability, T/C [20] 16% | viability, T/C [21] 17.1% | viability, T/C [22] 17.2% | viability, T/C [23] 31.7% | viability, T/C [24] 31.1% | viability, T/C [25] 26.5% | viability, T/C [26] 24.8% | viability, T/C [27] 27.7% | viability, T/C [28] 31.2%
< 10 nM: IC50 (curve of first compound, second compound 0.0316 µM) | IC50 [1] | IC50 [2] | IC50 [3] | IC50 [4]

CN(C)C/C=C/C(=O)Nc1cc2c(Nc3ccc(F)c(Cl)c3)ncnc2cc1O[C@H]1CCOC1 + COc1cc2nc(C)nc(NC(C)c3cc(N)cc(C(F)(F)F)c3)c2cc1OC1CCOC1
14.8 nM: IC50 [29]
25 nM: IC50 [4]
inactive: viability, T/C (second compound 0.1 µM, first compound 0.000316 µM) 84.3% | viability, T/C (second compound 0.1 µM, first compound 0.001 µM) 65.2% | viability, T/C (second compound 0.1 µM, first compound 0.00316 µM) 65.8% | viability, T/C [5] 60.5% | viability, T/C [6] 62.1% | viability, T/C [7] 60.7% | viability, T/C (second compound 0.316 µM, first compound 0.000316 µM) 67.7% | viability, T/C (second compound 0.316 µM, first compound 0.001 µM) 65.6% | viability, T/C (second compound 0.316 µM, first compound 0.00316 µM) 53.6% | viability, T/C [11] 46.5% | viability, T/C [12] 51.2% | viability, T/C [13] 54.5% | viability, T/C (second compound 1 µM, first compound 0.000316 µM) 59.5% | viability, T/C (second compound 1 µM, first compound 0.001 µM) 94.3% | viability, T/C (second compound 1 µM, first compound 0.00316 µM) 74.7% | viability, T/C [17] 73% | viability, T/C [18] 61.3% | viability, T/C [19] 69.1% | viability, T/C (second compound 3.16 µM, first compound 0.000316 µM) 74.3% | viability, T/C (second compound 3.16 µM, first compound 0.001 µM) 71.7% | viability, T/C (second compound 3.16 µM, first compound 0.00316 µM) 59.5% | viability, T/C [23] 54.2% | viability, T/C [24] 47.8% | viability, T/C [25] 49.2% | viability, T/C (second compound 10 µM, first compound 0.000316 µM) 92.1% | viability, T/C (second compound 10 µM, first compound 0.001 µM) 75.8% | viability, T/C (second compound 10 µM, first compound 0.00316 µM) 59.3% | viability, T/C (second compound 10 µM, first compound 0.01 µM) 49.4% | viability, T/C [30] 49.1% | viability, T/C [31] 48.4%
> 100 nM: IC50 [1] | IC50 [2] | IC50 [3]

CC1OCC2(CCN(c3cnc(Sc4ccnc(N)c4Cl)c(N)n3)CC2)C1N (configuration not stated)
1.1 µM [middle of 5 runs]: IC50 (curve of compound)
inactive: viability, T/C (compound 0.0316 µM) 77.5% and 85.9% and 85.1% | viability, T/C (compound 0.316 µM) 60% [middle of 19 runs]
785 nM [middle of 5 runs]: IC50 (compound alone, run of 08/26/2021)
535 nM [middle of 6 runs]: IC50 (compound alone, run of 09/02/2021)

COc1cc2nccc(Oc3ccc(NC(=O)C4(C(=O)Nc5ccc(F)cc5)CC4)cc3)c2cc1OC
> 10000 nM: IC50 (curve of compound)
inactive: viability, T/C (compound 0.0316 µM) 100% [middle of 5 runs] | viability, T/C (compound 0.1 µM) 104% [middle of 5 runs] | viability, T/C (compound 0.316 µM) 96.2% [middle of 5 runs] | viability, T/C (compound 1 µM) 104% (2×) and 101% (2×) and 99.7% | viability, T/C (compound 3.16 µM) 92.9% [middle of 5 runs] | viability, T/C (compound 10 µM) 87.7% [middle of 5 runs]

Cn1nccc1Nc1nccc(-c2cc3c(s2)C(C)(C)N(CCN2CCOCC2)C3=O)n1 + COc1cc2nc(C)nc(NC(C)c3cc(N)cc(C(F)(F)F)c3)c2cc1OC1CCOC1
343 nM: IC50 [1]
inactive: viability, T/C [6] 70.7% | viability, T/C [7] 76.1% | viability, T/C [8] 50.3% | viability, T/C [9] 38.7% | viability, T/C [10] 30.8% | viability, T/C (second compound 0.1 µM, first compound 10 µM) 29.9% | viability, T/C [12] 75.3% | viability, T/C [13] 61.8% | viability, T/C [14] 48.1% | viability, T/C [15] 34.8% | viability, T/C [16] 30.6% | viability, T/C (second compound 0.316 µM, first compound 10 µM) 26.1% | viability, T/C [18] 65.9% | viability, T/C [19] 57.8% | viability, T/C [20] 43% | viability, T/C [21] 35.6% | viability, T/C [22] 30% | viability, T/C (second compound 1 µM, first compound 10 µM) 27.4% | viability, T/C [24] 70.7% | viability, T/C [25] 68.1% | viability, T/C [26] 46.3% | viability, T/C [27] 38% | viability, T/C [28] 29.1% | viability, T/C (second compound 3.16 µM, first compound 10 µM) 22.6% | viability, T/C [30] 75.5% | viability, T/C [31] 66.9% | viability, T/C (second compound 10 µM, first compound 0.316 µM) 51.7% | viability, T/C (second compound 10 µM, first compound 1 µM) 36.7% | viability, T/C (second compound 10 µM, first compound 3.16 µM) 22.7% | viability, T/C (second compound 10 µM, first compound 10 µM) 24.9%
188 nM: IC50 [3]
358 nM: IC50 [29]
324 nM: IC50 [4]
258 nM: IC50 [2]
